Measured values taken from ChEMBL document CHEMBL4507303, “Data for DCP probe TP-004” (2021).

Legend:
[1] = biological target: GABA-A receptor; anion channel; assay: GPCRScan assay: inhibition of GABAA/BZP; assay type: protein-complex assay, Rattus norvegicus; design: radioligand conc. used [nm] 0.6 – 4.0, parental cells brain tissue
[2] = biological target: Activin receptor type-1B (Homo sapiens) (UniProt P36896); details: Compound concentration 1000.0 nM
[3] = biological target: Calcium/calmodulin-dependent protein kinase type II subunit delta (Homo sapiens) (UniProt Q13557); details: Compound concentration 1000.0 nM
[4] = biological target: Calcium/calmodulin-dependent protein kinase type II subunit gamma (Homo sapiens) (UniProt Q13555); details: Compound concentration 1000.0 nM
[5] = biological target: Cyclin-dependent kinase 4 (Homo sapiens) (UniProt P11802); details: Compound concentration 1000.0 nM
[6] = biological target: Casein kinase I isoform alpha-like (Homo sapiens) (UniProt Q8N752); details: Compound concentration 1000.0 nM
[7] = biological target: Casein kinase I isoform epsilon (Homo sapiens) (UniProt P49674); details: Compound concentration 1000.0 nM
[8] = biological target: Dual specificity tyrosine-phosphorylation-regulated kinase 2 (Homo sapiens) (UniProt Q92630); details: Compound concentration 1000.0 nM
[9] = test system: Epidermal growth factor receptor (Homo sapiens), P00533 [G719C]; details: Compound concentration 1000.0 nM
[10] = test system: Epidermal growth factor receptor (Homo sapiens), P00533 [T790M]; details: Compound concentration 1000.0 nM
[11] = biological target: Mitogen-activated protein kinase 6 (Homo sapiens) (UniProt Q16659); details: Compound concentration 1000.0 nM
[12] = biological target: Mitogen-activated protein kinase 4 (Homo sapiens) (UniProt P31152); details: Compound concentration 1000.0 nM
[13] = biological target: Focal adhesion kinase 1 (Homo sapiens) (UniProt Q05397); details: Compound concentration 1000.0 nM
[14] = biological target: Tyrosine-protein kinase Fer (Homo sapiens) (UniProt P16591); details: Compound concentration 1000.0 nM
[15] = biological target: Tyrosine-protein kinase FRK (Homo sapiens) (UniProt P42685); details: Compound concentration 1000.0 nM
[16] = biological target: Rhodopsin kinase GRK7 (Homo sapiens) (UniProt Q8WTQ7); details: Compound concentration 1000.0 nM
[17] = test system: Mast/stem cell growth factor receptor Kit (Homo sapiens), P10721 [L576P]; details: Compound concentration 1000.0 nM
Mast/stem cell growth factor receptor Kit (Homo sapiens), P10721 [L576P], sequence (P10721 whole entry L576P): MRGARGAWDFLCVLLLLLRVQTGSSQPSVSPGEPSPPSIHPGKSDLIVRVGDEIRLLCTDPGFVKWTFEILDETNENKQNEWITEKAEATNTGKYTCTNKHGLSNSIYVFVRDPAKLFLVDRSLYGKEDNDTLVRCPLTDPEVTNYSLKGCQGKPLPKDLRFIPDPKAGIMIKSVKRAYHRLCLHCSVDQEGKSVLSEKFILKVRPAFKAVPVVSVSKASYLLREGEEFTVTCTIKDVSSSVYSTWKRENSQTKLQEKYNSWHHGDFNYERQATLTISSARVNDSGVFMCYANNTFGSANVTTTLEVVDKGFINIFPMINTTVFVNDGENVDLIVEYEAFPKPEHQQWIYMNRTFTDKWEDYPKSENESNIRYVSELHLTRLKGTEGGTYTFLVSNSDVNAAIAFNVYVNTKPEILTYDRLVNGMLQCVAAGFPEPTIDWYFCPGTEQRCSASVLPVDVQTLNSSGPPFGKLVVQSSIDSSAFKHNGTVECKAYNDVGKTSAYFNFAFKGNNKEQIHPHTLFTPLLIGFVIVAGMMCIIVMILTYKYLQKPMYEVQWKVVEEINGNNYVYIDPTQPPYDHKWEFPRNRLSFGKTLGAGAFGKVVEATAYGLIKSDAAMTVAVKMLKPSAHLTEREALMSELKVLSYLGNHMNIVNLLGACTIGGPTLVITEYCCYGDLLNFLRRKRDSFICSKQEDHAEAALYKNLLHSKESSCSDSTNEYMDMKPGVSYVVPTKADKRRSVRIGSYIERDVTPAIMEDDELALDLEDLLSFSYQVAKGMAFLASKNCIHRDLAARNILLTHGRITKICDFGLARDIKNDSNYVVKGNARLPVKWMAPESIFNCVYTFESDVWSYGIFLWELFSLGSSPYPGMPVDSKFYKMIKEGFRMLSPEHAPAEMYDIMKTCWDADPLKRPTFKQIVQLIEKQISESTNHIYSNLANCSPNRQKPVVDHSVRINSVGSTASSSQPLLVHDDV

[18] = biological target: Mast/stem cell growth factor receptor Kit (Homo sapiens) (UniProt P10721); details: Compound concentration 1000.0 nM
Mast/stem cell growth factor receptor Kit (Homo sapiens), sequence (P10721 whole entry): as the sequence (P10721 whole entry L576P) above, with P576L counted along it

[19] = biological target: Tyrosine-protein kinase Lck (Homo sapiens) (UniProt P06239); details: Compound concentration 1000.0 nM
Tyrosine-protein kinase Lck (Homo sapiens), sequence (P06239 2-509 limits assumed): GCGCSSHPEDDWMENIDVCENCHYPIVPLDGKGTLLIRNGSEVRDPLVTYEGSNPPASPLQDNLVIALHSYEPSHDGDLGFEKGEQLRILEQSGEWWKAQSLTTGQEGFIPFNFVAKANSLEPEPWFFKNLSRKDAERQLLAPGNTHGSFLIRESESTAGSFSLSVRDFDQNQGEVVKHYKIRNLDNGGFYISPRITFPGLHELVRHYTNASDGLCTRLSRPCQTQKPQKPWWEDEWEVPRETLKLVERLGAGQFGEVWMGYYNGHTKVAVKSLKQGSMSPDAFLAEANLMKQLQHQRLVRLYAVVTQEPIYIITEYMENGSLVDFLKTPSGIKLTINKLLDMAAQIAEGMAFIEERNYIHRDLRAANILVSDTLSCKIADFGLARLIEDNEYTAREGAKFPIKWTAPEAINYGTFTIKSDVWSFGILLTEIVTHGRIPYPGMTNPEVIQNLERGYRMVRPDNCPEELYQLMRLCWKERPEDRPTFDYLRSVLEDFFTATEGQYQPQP

[20] = biological target: Serine/threonine-protein kinase mTOR (Homo sapiens) (UniProt P42345); details: Compound concentration 1000.0 nM
[21] = biological target: Serine/threonine-protein kinase Nek10 (Homo sapiens) (UniProt Q6ZWH5); details: Compound concentration 1000.0 nM
[22] = biological target: Serine/threonine-protein kinase Nek7 (Homo sapiens) (UniProt Q8TDX7); details: Compound concentration 1000.0 nM
[23] = biological target: Serine/threonine-protein kinase PAK 3 (Homo sapiens) (UniProt O75914); details: Compound concentration 1000.0 nM
Serine/threonine-protein kinase PAK 3 (Homo sapiens), sequence (O75914 whole entry, looked up): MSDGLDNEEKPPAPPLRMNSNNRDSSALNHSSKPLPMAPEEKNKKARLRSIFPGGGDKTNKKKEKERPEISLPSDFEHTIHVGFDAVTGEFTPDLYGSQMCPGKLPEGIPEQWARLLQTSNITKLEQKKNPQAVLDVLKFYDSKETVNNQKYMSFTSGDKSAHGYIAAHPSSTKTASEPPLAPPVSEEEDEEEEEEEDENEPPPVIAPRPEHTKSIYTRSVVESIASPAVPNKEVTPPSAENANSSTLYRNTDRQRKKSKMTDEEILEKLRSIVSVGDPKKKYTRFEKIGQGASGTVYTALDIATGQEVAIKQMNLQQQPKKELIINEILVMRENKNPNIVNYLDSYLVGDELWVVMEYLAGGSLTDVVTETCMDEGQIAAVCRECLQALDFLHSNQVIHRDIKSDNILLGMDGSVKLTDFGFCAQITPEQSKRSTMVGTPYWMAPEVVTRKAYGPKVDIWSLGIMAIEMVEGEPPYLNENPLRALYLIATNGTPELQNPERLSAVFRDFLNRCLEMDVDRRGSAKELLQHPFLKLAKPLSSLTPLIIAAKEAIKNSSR

[24] = biological target: Cyclin-dependent kinase 14 (Homo sapiens) (UniProt O94921); details: Compound concentration 1000.0 nM
[25] = test system: Phosphatidylinositol 4,5-bisphosphate 3-kinase catalytic subunit alpha isoform (Homo sapiens), P42336 [E545K]; details: Compound concentration 1000.0 nM
Phosphatidylinositol 4,5-bisphosphate 3-kinase catalytic subunit alpha isoform (Homo sapiens), P42336 [E545K], sequence (P42336 whole entry E545K, canonical isoform): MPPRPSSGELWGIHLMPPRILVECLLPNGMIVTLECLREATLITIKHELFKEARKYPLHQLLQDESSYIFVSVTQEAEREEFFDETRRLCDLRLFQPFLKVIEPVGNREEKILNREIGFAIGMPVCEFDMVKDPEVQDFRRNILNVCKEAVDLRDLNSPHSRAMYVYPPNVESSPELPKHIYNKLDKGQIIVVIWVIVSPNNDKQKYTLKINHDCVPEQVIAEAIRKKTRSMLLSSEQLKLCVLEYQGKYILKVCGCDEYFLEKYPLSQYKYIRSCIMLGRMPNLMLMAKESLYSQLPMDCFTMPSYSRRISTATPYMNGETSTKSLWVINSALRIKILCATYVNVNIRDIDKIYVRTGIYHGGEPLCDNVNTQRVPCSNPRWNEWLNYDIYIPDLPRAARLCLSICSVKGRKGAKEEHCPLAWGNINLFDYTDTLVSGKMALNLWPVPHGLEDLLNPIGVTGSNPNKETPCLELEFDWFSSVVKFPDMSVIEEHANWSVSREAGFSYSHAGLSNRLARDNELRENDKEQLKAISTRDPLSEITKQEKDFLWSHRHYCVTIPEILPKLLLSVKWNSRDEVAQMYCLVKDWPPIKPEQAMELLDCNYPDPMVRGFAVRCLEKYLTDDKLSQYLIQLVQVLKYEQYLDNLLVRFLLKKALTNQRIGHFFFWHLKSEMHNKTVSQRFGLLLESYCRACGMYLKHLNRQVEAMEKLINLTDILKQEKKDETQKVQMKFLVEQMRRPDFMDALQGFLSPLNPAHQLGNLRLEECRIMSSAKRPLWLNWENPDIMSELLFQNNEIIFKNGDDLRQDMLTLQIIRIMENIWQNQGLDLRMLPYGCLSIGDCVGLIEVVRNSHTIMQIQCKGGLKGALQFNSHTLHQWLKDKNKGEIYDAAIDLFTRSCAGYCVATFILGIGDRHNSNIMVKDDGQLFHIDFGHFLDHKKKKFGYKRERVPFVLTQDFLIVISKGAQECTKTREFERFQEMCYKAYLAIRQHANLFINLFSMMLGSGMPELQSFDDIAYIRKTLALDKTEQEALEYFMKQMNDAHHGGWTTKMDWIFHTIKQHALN

[26] = biological target: Serine/threonine-protein kinase pim-2 (Homo sapiens) (UniProt Q9P1W9); details: Compound concentration 1000.0 nM
[27] = biological target: Serine/threonine-protein kinase N1 (Homo sapiens) (UniProt Q16512); details: Compound concentration 1000.0 nM
[28] = biological target: Protein kinase C eta type (Homo sapiens) (UniProt P24723); details: Compound concentration 1000.0 nM
[29] = biological target: Protein kinase C iota type (Homo sapiens) (UniProt P41743); details: Compound concentration 1000.0 nM
[30] = biological target: Serine/threonine-protein kinase D1 (Homo sapiens) (UniProt Q15139); details: Compound concentration 1000.0 nM
[31] = biological target: Interferon-induced, double-stranded RNA-activated protein kinase (Homo sapiens) (UniProt P19525); details: Compound concentration 1000.0 nM
[32] = test system: Proto-oncogene tyrosine-protein kinase receptor Ret (Homo sapiens), P07949 [M918T]; details: Compound concentration 1000.0 nM
[33] = biological target: Receptor-interacting serine/threonine-protein kinase 4 (Homo sapiens) (UniProt P57078); details: Compound concentration 1000.0 nM
[34] = biological target: Dual serine/threonine and tyrosine protein kinase (Homo sapiens) (UniProt Q6XUX3); details: Compound concentration 1000.0 nM
[35] = biological target: Ribosomal protein S6 kinase alpha-5 (Homo sapiens) (UniProt O75582); details: Compound concentration 1000.0 nM
[36] = biological target: Serine/threonine-protein kinase SIK1 (Homo sapiens) (UniProt P57059); details: Compound concentration 1000.0 nM
Serine/threonine-protein kinase SIK1 (Homo sapiens), sequence (P57059 whole entry): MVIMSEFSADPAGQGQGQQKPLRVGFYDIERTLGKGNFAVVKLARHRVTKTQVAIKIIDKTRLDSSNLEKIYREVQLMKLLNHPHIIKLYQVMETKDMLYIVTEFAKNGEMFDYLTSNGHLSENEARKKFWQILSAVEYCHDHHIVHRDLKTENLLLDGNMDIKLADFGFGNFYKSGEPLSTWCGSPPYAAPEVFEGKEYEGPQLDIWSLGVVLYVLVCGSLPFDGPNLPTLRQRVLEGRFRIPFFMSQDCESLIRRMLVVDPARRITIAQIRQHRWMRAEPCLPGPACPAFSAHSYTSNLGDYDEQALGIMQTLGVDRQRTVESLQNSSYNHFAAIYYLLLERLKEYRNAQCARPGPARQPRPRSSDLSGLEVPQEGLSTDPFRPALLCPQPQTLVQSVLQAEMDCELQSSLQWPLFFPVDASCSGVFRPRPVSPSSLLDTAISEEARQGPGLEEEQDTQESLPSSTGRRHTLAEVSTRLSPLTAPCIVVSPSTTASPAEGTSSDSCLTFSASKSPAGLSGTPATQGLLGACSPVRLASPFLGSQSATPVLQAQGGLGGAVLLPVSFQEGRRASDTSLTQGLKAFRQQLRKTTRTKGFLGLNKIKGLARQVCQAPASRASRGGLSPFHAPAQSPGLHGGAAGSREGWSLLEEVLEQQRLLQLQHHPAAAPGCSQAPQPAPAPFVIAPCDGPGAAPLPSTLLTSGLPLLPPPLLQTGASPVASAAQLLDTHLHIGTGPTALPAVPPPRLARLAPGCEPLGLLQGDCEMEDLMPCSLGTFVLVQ

[37] = biological target: Serine/threonine-protein kinase 16 (Homo sapiens) (UniProt O75716); details: Compound concentration 1000.0 nM
[38] = biological target: Tyrosine-protein kinase Tec (Homo sapiens) (UniProt P42680); details: Compound concentration 1000.0 nM
[39] = biological target: TGF-beta receptor type-2 (Homo sapiens) (UniProt P37173); details: Compound concentration 1000.0 nM
[40] = biological target: Angiopoietin-1 receptor (Homo sapiens) (UniProt Q02763); details: Compound concentration 1000.0 nM
Angiopoietin-1 receptor (Homo sapiens), sequence (Q02763 whole entry): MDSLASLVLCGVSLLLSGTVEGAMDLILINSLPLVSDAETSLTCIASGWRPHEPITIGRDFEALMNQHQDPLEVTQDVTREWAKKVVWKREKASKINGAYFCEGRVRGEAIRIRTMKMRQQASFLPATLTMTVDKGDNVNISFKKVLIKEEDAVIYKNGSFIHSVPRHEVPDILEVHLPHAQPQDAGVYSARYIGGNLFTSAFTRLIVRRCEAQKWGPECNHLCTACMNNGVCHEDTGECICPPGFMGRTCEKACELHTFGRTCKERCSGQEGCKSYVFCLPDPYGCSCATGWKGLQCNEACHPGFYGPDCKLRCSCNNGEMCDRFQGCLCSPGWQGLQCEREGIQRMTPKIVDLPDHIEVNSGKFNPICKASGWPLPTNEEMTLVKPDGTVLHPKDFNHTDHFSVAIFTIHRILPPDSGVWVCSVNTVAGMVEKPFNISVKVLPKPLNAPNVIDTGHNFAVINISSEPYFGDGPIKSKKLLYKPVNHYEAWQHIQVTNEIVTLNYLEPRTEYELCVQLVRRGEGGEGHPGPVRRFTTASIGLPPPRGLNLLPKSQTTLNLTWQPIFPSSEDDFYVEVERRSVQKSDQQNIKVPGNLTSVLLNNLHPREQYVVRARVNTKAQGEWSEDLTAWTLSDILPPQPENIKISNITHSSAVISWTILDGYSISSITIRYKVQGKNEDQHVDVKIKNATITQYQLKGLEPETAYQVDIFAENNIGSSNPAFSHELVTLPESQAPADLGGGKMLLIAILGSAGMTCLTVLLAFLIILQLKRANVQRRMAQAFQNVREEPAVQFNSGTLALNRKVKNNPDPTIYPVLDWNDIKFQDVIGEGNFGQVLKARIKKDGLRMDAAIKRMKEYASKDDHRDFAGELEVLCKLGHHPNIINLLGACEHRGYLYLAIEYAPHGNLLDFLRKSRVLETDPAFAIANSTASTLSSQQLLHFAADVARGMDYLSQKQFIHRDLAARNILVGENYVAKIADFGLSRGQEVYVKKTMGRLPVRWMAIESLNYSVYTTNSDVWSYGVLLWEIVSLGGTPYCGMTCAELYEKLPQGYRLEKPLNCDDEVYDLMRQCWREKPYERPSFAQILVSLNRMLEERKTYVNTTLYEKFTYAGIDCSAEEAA

[41] = biological target: Serine/threonine-protein kinase tousled-like 1 (Homo sapiens) (UniProt Q9UKI8); details: Compound concentration 1000.0 nM
[42] = biological target: Testis-specific serine/threonine-protein kinase 3 (Homo sapiens) (UniProt Q96PN8); details: Compound concentration 1000.0 nM
[43] = biological target: Vascular endothelial growth factor receptor 2 (Homo sapiens) (UniProt P35968); details: Compound concentration 1000.0 nM
[44] = biological target: 5-hydroxytryptamine receptor 2C (Homo sapiens) (UniProt P28335); details: Compound concentration 10.0 uM
[45] = biological target: Muscarinic acetylcholine receptor M1 (Homo sapiens) (UniProt P11229); details: Compound concentration 10.0 uM
[46] = biological target: Muscarinic acetylcholine receptor M5 (Homo sapiens) (UniProt P08912); details: Compound concentration 10.0 uM

Cc1nc(N2CC[C@@H](O)C2)ncc1-c1cc(C(F)(F)F)cc2[nH]ncc12 [TP-004]
inactive: residual activity [2] 100% | residual activity [3] 100% | residual activity [4] 100% | residual activity [5] 88% | residual activity [6] 93% | residual activity [7] 79% | residual activity [8] 79% | residual activity [9] 100% | residual activity [10] 93% | residual activity [11] 83% | residual activity [12] 90% | residual activity [13] 86% | residual activity [14] 97% | residual activity [15] 98% | residual activity [16] 70% | residual activity [17] 69% | residual activity [18] 89% | residual activity [19] 100% | residual activity [20] 100% | residual activity [21] 96% | residual activity [22] 97% | residual activity [23] 72% | residual activity [24] 100% | residual activity [25] 56% | residual activity [26] 89% | residual activity [27] 100% | residual activity [28] 94% | residual activity [29] 100% | residual activity [30] 75% | residual activity [31] 100% | residual activity [32] 100% | residual activity [33] 60% | residual activity [34] 88% | residual activity [35] 100% | residual activity [36] 90% | residual activity [37] 92% | residual activity [38] 84% | residual activity [39] 99% | residual activity [40] 100% | residual activity [41] 100% | residual activity [42] 100% | residual activity [43] 53% | inhibition [44] -0.722% | inhibition [45] 1.12% | inhibition [46] 0.643%
4.54 µM: Ki [1]
